Results: PMC2014795 (PLoS Pathogens, 2007)

What follows are compounds tested against T1, HLA-DR1 (DRB1*0101) (Homo sapiens, UniProt P01903+P01911, A100R/D57E/F55L/F60I/F76Y/I96L/L162R/M171V/P40L/Q125E/R42F/V115G/Y59C) (assay: biochemical).
T1 construct: the extracellular portion of HLA-DR1 was produced by expression of isolated subunits in Escherichia coli inclusion bodies; made in house
Format: binding

| Structure (SMILES) | IC50 |
| --- | --- |
| CC[C@H](C)[C@H](N)C(=O)N[C@@H](CC(C)C)C(=O)N[C@@H](CCCCN)C(=O)N[C@@H](CO)C(=O)N[C@@H](CC(C)C)C(=O)NCC(=O)N[C@@H](Cc1ccccc1)C(=O)N[C@@H](CCCCN)C(=O)N[C@H](C(=O)N[C@@H](CC(C)C)C(=O)N[C@@H](CC(=O)O)C(=O)NCC(=O)N[C@@H](CO)C(=O)N1CCC[C@H]1C(=O)N[C@H](C(=O)N[C@@H](CO)C(=O)N[C@@H](CC(C)C)C(=O)N[C@@H](CCCNC(=N)N)C(=O)N[C@@H](Cc1ccc(O)cc1)C(=O)NCC(=O)N[C@@H](CO)C(=O)O)[C@@H](C)CC)C(C)C [Peptide 306] | 5 ± 1 nM |
| CC[C@H](C)[C@H](NC(=O)[C@H](CCCNC(=N)N)NC(=O)[C@H](CC(=O)O)NC(=O)[C@@H](NC(=O)[C@H](CCCCN)NC(=O)[C@@H](NC(=O)[C@H](CO)NC(=O)[C@H](CCC(=O)O)NC(=O)[C@@H](NC(=O)[C@H](Cc1ccc(O)cc1)NC(=O)[C@H](CCSC)NC(=O)[C@H](Cc1ccccc1)NC(=O)[C@H](CO)NC(=O)[C@H](Cc1ccccc1)NC(=O)[C@H](CCCCN)NC(=O)[C@H](Cc1ccccc1)NC(=O)[C@H](Cc1ccccc1)NC(=O)[C@@H](N)CC(=O)O)[C@@H](C)CC)[C@@H](C)CC)C(C)C)C(=O)NCC(=O)N[C@@H](CC(=O)O)C(=O)N[C@@H](CC(N)=O)C(=O)O [Peptide 328] | 140 ± 20 nM |
| CC[C@H](C)[C@H](NC(=O)[C@H](C)NC(=O)[C@H](CC(C)C)NC(=O)[C@H](CO)NC(=O)[C@H](CC(N)=O)NC(=O)[C@H](CC(C)C)NC(=O)[C@H](Cc1ccccc1)NC(=O)[C@H](CCCNC(=N)N)NC(=O)[C@H](CCSC)NC(=O)[C@H](CC(=O)O)NC(=O)[C@H](Cc1ccccc1)NC(=O)[C@H](CCC(N)=O)NC(=O)CNC(=O)[C@@H](NC(=O)[C@@H](N)Cc1ccc(O)cc1)[C@@H](C)CC)C(=O)N[C@@H](Cc1c[nH]cn1)C(=O)N[C@@H](CCC(=O)O)C(=O)N[C@@H](CCCCN)C(=O)N[C@@H](Cc1ccccc1)C(=O)N[C@@H](CC(=O)O)C(=O)N[C@@H](C)C(=O)O [Peptide 314] | 4 ± 1 nM |
| CC[C@H](C)[C@H](NC(=O)[C@@H]1CCCN1C(=O)[C@H](CO)NC(=O)CNC(=O)[C@H](CO)NC(=O)[C@H](CC(C)C)NC(=O)[C@H](CC(C)C)NC(=O)[C@H](CC(C)C)NC(=O)[C@H](Cc1ccccc1)NC(=O)[C@@H]1CCCN1C(=O)[C@@H](NC(=O)[C@H](CCCCN)NC(=O)[C@H](CC(N)=O)NC(=O)[C@H](CCCCN)NC(=O)[C@@H](N)CC(N)=O)[C@@H](C)CC)C(=O)N[C@H](C(=O)N[C@@H](CC(N)=O)C(=O)N[C@H](C(=O)N1CCC[C@H]1C(=O)N[C@@H](CC(N)=O)C(=O)N[C@H](C(=O)O)[C@@H](C)O)[C@@H](C)O)[C@@H](C)O [Peptide 316] | 45 ± 19 nM |
| CC[C@H](C)[C@H](NC(=O)[C@H](C)NC(=O)[C@H](CCCNC(=N)N)NC(=O)[C@@H](NC(=O)[C@@H](NC(=O)[C@@H](NC(=O)[C@H](Cc1ccccc1)NC(=O)[C@H](Cc1c[nH]c2ccccc12)NC(=O)[C@H](Cc1ccccc1)NC(=O)[C@H](CO)NC(=O)[C@H](CC(N)=O)NC(=O)[C@@H]1CCCN1C(=O)[C@@H](N)CCCNC(=N)N)C(C)C)C(C)C)C(C)C)C(=O)N[C@@H](C)C(=O)N[C@@H](CO)C(=O)N[C@@H](CCSC)C(=O)N[C@H](C(=O)N[C@@H](CCSC)C(=O)N[C@@H](Cc1ccc(O)cc1)C(=O)N[C@@H](CC(C)C)C(=O)N[C@H](C(=O)O)C(C)C)[C@@H](C)CC [Peptide 304] | 4000 nM |
| CC[C@H](C)[C@H](NC(=O)[C@H](Cc1ccccc1)NC(=O)[C@H](CC(C)C)NC(=O)[C@H](CC(C)C)NC(=O)[C@H](CS)NC(=O)[C@@H](NC(=O)[C@H](C)NC(=O)[C@H](C)NC(=O)[C@@H](NC(=O)[C@H](C)N)[C@@H](C)O)C(C)C)C(=O)N[C@@H](CCC(N)=O)C(=O)NCC(=O)N[C@@H](Cc1ccc(O)cc1)C(=O)N[C@@H](CO)C(=O)N[C@H](C(=O)N[C@@H](Cc1ccc(O)cc1)C(=O)N[C@@H](CCC(=O)O)C(=O)N[C@@H](CC(N)=O)C(=O)N[C@@H](Cc1ccc(O)cc1)C(=O)NCC(=O)N[C@@H](CC(N)=O)C(=O)O)[C@@H](C)CC [Peptide 336] | 280 ± 40 nM |
| CC[C@H](C)[C@H](N)C(=O)N1CCC[C@H]1C(=O)N[C@@H](CC(C)C)C(=O)N[C@@H](CO)C(=O)N[C@@H](CCC(=O)O)C(=O)N[C@@H](CCSC)C(=O)N[C@H](C(=O)N[C@H](C(=O)N[C@@H](CCCCN)C(=O)N[C@@H](CC(C)C)C(=O)N[C@H](C(=O)N[C@@H](C)C(=O)N[C@H](C(=O)N[C@@H](CS)C(=O)N[C@@H](CCSC)C(=O)N[C@@H](CCCCN)C(=O)N[C@@H](CS)C(=O)N[C@@H](Cc1ccccc1)C(=O)N[C@@H](CCCCN)C(=O)N[C@@H](CCC(=O)O)C(=O)N[C@@H](C)C(=O)O)C(C)C)[C@@H](C)O)C(C)C)C(C)C [Peptide 305] | 29 ± 10 nM |
| CC[C@H](C)[C@H](NC(=O)[C@H](CCSC)NC(=O)[C@@H](N)Cc1ccc(O)cc1)C(=O)N[C@H](C(=O)N[C@H](C(=O)NCC(=O)N[C@H](C(=O)N[C@H](C(=O)N[C@H](C(=O)N[C@@H](CC(C)C)C(=O)N[C@@H](C)C(=O)N[C@@H](C)C(=O)N[C@@H](CC(C)C)C(=O)N[C@@H](Cc1ccccc1)C(=O)N[C@@H](CCSC)C(=O)N[C@@H](Cc1ccc(O)cc1)C(=O)N[C@@H](Cc1ccc(O)cc1)C(=O)N[C@@H](C)C(=O)N[C@@H](CCCCN)C(=O)N[C@@H](CCCNC(=N)N)C(=O)N[C@@H](CCSC)C(=O)O)[C@@H](C)CC)[C@@H](C)CC)C(C)C)[C@@H](C)CC)C(C)C [Peptide 317] | 675 ± 185 nM |
| CC[C@H](C)[C@H](N)C(=O)N[C@@H](CC(=O)O)C(=O)N[C@@H](CC(N)=O)C(=O)NCC(=O)N[C@@H](CO)C(=O)N[C@@H](CC(N)=O)C(=O)N[C@@H](CCSC)C(=O)N[C@@H](CC(C)C)C(=O)N[C@H](C(=O)N[C@@H](CC(C)C)C(=O)N[C@@H](CC(N)=O)C(=O)N1CCC[C@H]1C(=O)N[C@H](C(=O)N[C@@H](CCC(N)=O)C(=O)N[C@@H](CO)C(=O)N[C@@H](CC(=O)O)C(=O)N[C@@H](CO)C(=O)NCC(=O)N[C@H](C(=O)N[C@@H](Cc1ccc(O)cc1)C(=O)N[C@H](C(=O)O)[C@@H](C)CC)[C@@H](C)CC)[C@@H](C)O)[C@@H](C)CC [Peptide 338] | 980 ± 170 nM |
| CC[C@H](C)[C@H](NC(=O)[C@@H](NC(=O)[C@@H]1CCCN1C(=O)[C@H](CCC(=O)O)NC(=O)[C@H](CO)NC(=O)[C@H](CO)NC(=O)[C@H](CCSC)NC(=O)[C@H](Cc1ccc(O)cc1)NC(=O)[C@H](CCCNC(=N)N)NC(=O)[C@H](Cc1ccccc1)NC(=O)[C@@H](NC(=O)[C@@H](NC(=O)[C@H](CC(N)=O)NC(=O)[C@H](C)NC(=O)[C@@H](NC(=O)[C@@H](N)CCC(N)=O)[C@@H](C)O)C(C)C)C(C)C)[C@@H](C)CC)C(=O)N[C@@H](Cc1ccccc1)C(=O)NCC(=O)N[C@@H](CCC(=O)O)C(=O)N[C@@H](CO)C(=O)N[C@@H](CO)C(=O)O [Peptide 302] | 37 ± 10 nM |
| CC[C@H](C)[C@H](NC(=O)[C@H](Cc1ccccc1)NC(=O)[C@H](CCC(=O)O)NC(=O)[C@H](CC(N)=O)NC(=O)[C@@H](N)[C@@H](C)O)C(=O)N[C@@H](CO)C(=O)N[C@@H](Cc1ccccc1)C(=O)N[C@@H](CC(C)C)C(=O)N[C@@H](CC(C)C)C(=O)N[C@@H](CC(C)C)C(=O)N[C@H](C(=O)N[C@@H](CO)C(=O)N[C@H](C(=O)N1CCC[C@H]1C(=O)N[C@H](C(=O)N[C@@H](Cc1ccc(O)cc1)C(=O)N[C@@H](CC(N)=O)C(=O)N[C@H](C(=O)N[C@@H](CC(C)C)C(=O)N[C@@H](Cc1ccccc1)C(=O)N[C@@H](Cc1c[nH]c2ccccc12)C(=O)O)[C@@H](C)CC)[C@@H](C)CC)[C@@H](C)CC)[C@@H](C)O [Peptide 313] | 510 ± 110 nM |
| CC[C@H](C)[C@H](NC(=O)[C@H](CC(N)=O)NC(=O)[C@H](Cc1ccccc1)NC(=O)[C@H](CC(C)C)NC(=O)[C@H](CCCCN)NC(=O)[C@H](CC(N)=O)NC(=O)CNC(=O)[C@H](CC(=O)O)NC(=O)[C@H](CC(C)C)NC(=O)[C@@H]1CCCN1C(=O)[C@@H](NC(=O)[C@@H](NC(=O)[C@H](CCCCN)NC(=O)[C@@H](NC(=O)[C@H](CCCCN)NC(=O)[C@H](CS)NC(=O)[C@H](CO)NC(=O)[C@@H](N)Cc1c[nH]cn1)C(C)C)[C@@H](C)CC)C(C)C)C(=O)N[C@@H](C)C(=O)N[C@@H](CCC(N)=O)C(=O)N[C@@H](CCCNC(=N)N)C(=O)O [Peptide 329] | 5 ± 1 nM |
| CC[C@H](C)[C@H](NC(=O)CNC(=O)[C@@H](NC(=O)[C@H](CC(C)C)NC(=O)[C@H](CCCCN)NC(=O)[C@H](CC(C)C)NC(=O)[C@H](Cc1ccc(O)cc1)NC(=O)[C@H](CCC(=O)O)NC(=O)[C@H](CCCNC(=N)N)NC(=O)[C@@H](NC(=O)[C@H](CO)NC(=O)[C@@H](NC(=O)[C@@H](N)CC(N)=O)[C@@H](C)O)[C@@H](C)O)[C@@H](C)CC)C(=O)N[C@H](C(=O)N[C@@H](C)C(=O)N[C@H](C(=O)N[C@@H](CCSC)C(=O)N[C@@H](Cc1ccccc1)C(=O)N[C@@H](C)C(=O)N[C@H](C(=O)N[C@@H](Cc1ccc(O)cc1)C(=O)O)[C@@H](C)O)[C@@H](C)CC)[C@@H](C)O [Peptide 308] | 23 ± 5 nM |
| CC[C@H](C)[C@H](NC(=O)CNC(=O)[C@H](CCCCN)NC(=O)[C@@H](N)Cc1c[nH]c2ccccc12)C(=O)N[C@@H](Cc1ccc(O)cc1)C(=O)N[C@H](C(=O)N[C@@H](Cc1ccc(O)cc1)C(=O)N[C@@H](CCCNC(=N)N)C(=O)N[C@H](C(=O)N[C@H](C(=O)N[C@@H](CCCCN)C(=O)N[C@@H](CO)C(=O)N[C@@H](CO)C(=O)N[C@@H](Cc1ccccc1)C(=O)N1CCC[C@H]1C(=O)N[C@H](C(=O)N1CCC[C@H]1C(=O)N[C@H](C(=O)N[C@H](C(=O)N[C@@H](CCCCN)C(=O)N[C@@H](CO)C(=O)O)[C@@H](C)CC)[C@@H](C)O)C(C)C)[C@@H](C)CC)[C@@H](C)CC)[C@@H](C)O [Peptide 335] | 38 ± 11 nM |
| CC[C@H](C)[C@H](NC(=O)CNC(=O)[C@@H](NC(=O)[C@@H]1CCCN1C(=O)[C@@H](NC(=O)CNC(=O)CNC(=O)CNC(=O)[C@@H](N)CC(C)C)[C@@H](C)O)[C@@H](C)CC)C(=O)N[C@H](C(=O)N[C@@H](CO)C(=O)N[C@@H](C)C(=O)N[C@@H](CCC(N)=O)C(=O)N[C@H](C(=O)N[C@@H](CC(C)C)C(=O)N[C@@H](CO)C(=O)N[C@@H](CCC(=O)O)C(=O)N[C@@H](CCCCN)C(=O)N[C@@H](Cc1ccccc1)C(=O)N[C@H](C(=O)N[C@@H](CCC(N)=O)C(=O)O)[C@@H](C)O)C(C)C)[C@@H](C)CC [Peptide 326] | 29 ± 8 nM |
